Drawing on patent US9481654B2, “Compositions and methods for inhibition of the JAK pathway” (Rigel Pharmaceuticals, Inc., priority 2006, dated 2016), this text covers IC50 for 22 compounds.

Counter-ions that a name gives are not always drawn.

As usually defined, the IC50 is the midpoint of a concentration-inhibition curve.

Experiment [1] concerns IL-4 stimulated CD23 upregulation in human Ramos B cells (JAK-1/JAK-3, Stat-6). In words: Assay for Ramos B-Cell Line Stimulated with IL-4 (CD23 upregulation, FACS). It is filed as cell-based. A digest of the protocol: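 Log-phase Ramos B cells (5×10^4 per point, RPMI with 5% serum) pre-incubated with compound or DMSO 1 h at 37° C, then stimulated with IL-4 at 50 units/mL final for 20-24 h. CD23 upregulation measured by staining and flow cytometry.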

In experiment [2] the test system is primary human T-cells (IL-2 induced proliferation, JAK-1/JAK-3, Stat-5). The experiment in a line: Primary Human T-Cell Proliferation Assay Stimulated with IL-2 (CellTiter-Glo). Type of experiment: cell-based. As to conditions: Table III Example 4. On the procedure: In this assay, primary human T-cells derived from peripheral blood and pre-activated through stimulation of the T-cell receptor and CD28, proliferate in culture in response to the cytokine Interleukin-2 (IL-2). This proliferative response is dependent on the activation of JAK1 and JAK3 tyrosine kinases, which phosphorylate and activate the transcription factor Stat-5. The primary human T-cells are incubated with the 2,4-pyrimidinediamine compounds in the presence of IL-2 for 72 hours, and at the assay endpoint intracellular ATP concentrations are measured to assess cell viability. A reduction in cell proliferation compared to control conditions is indicative of inhibition of the JAK kinase pathway.
Primary human T-cells derived from peripheral blood and pre-activated through stimulation of the T-cell receptor and CD28 proliferate in vitro in response to the cytokine Interleukin-2 (IL-2). This proliferative response is dependent on the activation of JAK-1 and JAK-3 tyrosine kinases, which phosphorylate and activate the transcription factor Stat-5.
Human primary T cells were prepared as follows. […] The lymphocytes at the serum: ficoll interface were recovered and washed twice with 5 volumes of PBS. […] The primary T-cells were stimulated for 3 to 4 days, then transferred to a fresh flask and maintained in RPMI with 10% FBS and 40 U/mL IL-2.
Primary T-cells were washed twice with PBS to remove the IL-2 and resuspended in Yssel's medium at 2×10^6 cells/mL. 50 μL of cell suspension containing 80 U/mL IL-2 was added to each well of a flat bottom 96 well black plate. For the unstimulated control, IL-2 was omitted from the last column on the plate. […] 50 μL of 2× compound was added per well in duplicate and the cells were allowed to proliferate for 72 hours at 37° C.
Proliferation was measured using CellTiter-Glo® Luminescent Cell Viability Assay (Promega), which determines the number of viable cells in culture based on quantitation of the ATP present, as an indicator of metabolically active cells. The substrate was thawed and allowed to come to room temperature. After mixing the Cell Titer-Glo reagent and diluent together, 100 μL was added to each well. The plates were mixed on an orbital shaker for two minutes to induce lysis and incubated at room temperature for an additional ten minutes to allow the signal to equilibrate.
A general note: Cellular ATP, detected with luciferase, serves as a proxy for viable cell number.

On to `CCS(=O)(=O)NCc1ccc(Nc2nc(Nc3ccc(C)c(S(N)(=O)=O)c3)ncc2F)cc1Cl` [Compound I-76, N2-(3-aminosulfonyl-4-methyl)phenyl-N4-(3-chloro-4-ethylsulfonylaminomethyl)phenyl-5-fluoro-2,4-pyrimidinediamine], for which the IC50 in experiment [1] (Table III Example 3) was determined as 169 nM; in experiment [2], 463 nM.

Regarding `NS(=O)(=O)c1cc(Nc2ncc(F)c(Nc3ccc(CNS(=O)(=O)C4CC4)cc3)n2)cc(S(N)(=O)=O)c1` [Compound I-82, N4-(4-cyclopropylsulfonylaminomethyl)phenyl-N2-(3,5-diaminosulfonyl)phenyl-5-fluoro-2,4-pyrimidinediamine], the figures for the IC50 in experiment [1] (Table III Example 3) and in experiment [2] were 1100 nM and 964 nM, respectively.

For the compound `CS(=O)(=O)CS(=O)(=O)NCc1ccc(Nc2nc(Nc3ccc(S(N)(=O)=O)cc3)ncc2F)cc1` [Compound I-85, N2-(4-aminosulfonyl)phenyl-5-fluoro-N4-[4-(methylsulfonylmethylsulfonylamino)methyl]phenyl-2,4-pyrimidinediamine], the IC50 came out at 3100 nM in experiment [1] (Table III Example 3) and 3900 nM in experiment [2].

As for `CS(=O)(=O)CS(=O)(=O)NCc1ccc(Nc2nc(Nc3cccc(S(N)(=O)=O)c3)ncc2F)cc1` [Compound I-86, N2-(3-aminosulfonyl)phenyl-5-fluoro-N4-[4-(methylsulfonylmethylsulfonylamino)methyl]phenyl-2,4-pyrimidinediamine], the values for the IC50 in experiment [1] (Table III Example 3) and in experiment [2] were 505 nM and 224 nM, respectively.

In the case of `Cc1ccc(Nc2ncc(F)c(Nc3ccc(CNS(=O)(=O)CS(C)(=O)=O)cc3)n2)cc1S(N)(=O)=O` [Compound I-87, N2-(3-aminosulfonyl-4-methyl)phenyl-5-fluoro-N4-[4-(methylsulfonylmethylsulfonylamino)methyl]phenyl-2,4-pyrimidinediamine], the results for the IC50 in experiment [1] (Table III Example 3) and in experiment [2] were 251 nM and 309 nM, respectively.

As to `NS(=O)(=O)c1ccc(Nc2ncc(F)c(Nc3ccc(CNS(=O)(=O)c4cccnc4)cc3)n2)cc1` [Compound I-89, N2-(4-aminosulfonyl)phenyl-5-fluoro-N4-[4-(pyrid-3-yl)sulfonylaminomethyl]phenyl-2,4-pyrimidinediamine], the results for the IC50 in experiment [1] (Table III Example 3) and in experiment [2] were 448 nM and 1500 nM, respectively.

On to `Cc1cnc(Nc2ccc(S(N)(=O)=O)cc2)nc1Nc1ccc(CNS(=O)(=O)c2cccnc2)cc1` [Compound I-99, N2-(4-aminosulfonyl)phenyl-5-methyl-N4-[4-(pyrid-3-yl)sulfonylaminomethyl]phenyl-2,4-pyrimidinediamine], for which the values for the IC50 in experiment [1] (Table III Example 3) and in experiment [2] were 565 nM and 954 nM, respectively.

For `Cc1ccc(Nc2ncc(F)c(Nc3cccc(CS(=O)(=O)NC4CCN(C)CC4)c3)n2)cc1S(N)(=O)=O` [Compound I-107, N2-(3-Aminosulfonyl-4-methylphenyl)-5-fluoro-N4-[3-(1-methylpiperdin-4-ylaminosulfonylmethylene)phenyl]-2,4-pyrimidinediamine], the IC50 in experiment [1] (Table III Example 3) came to 2930 nM; in experiment [2], 18100 nM.

With `CN1CCC(NS(=O)(=O)Cc2cccc(Nc3nc(Nc4cccc(S(N)(=O)=O)c4)ncc3F)c2)CC1` [Compound I-108, N2-(3-Aminosulfonylphenyl)-5-fluoro-N4-[3-(1-methylpiperdin-4-ylaminosulfonylmethylene)phenyl]-2,4-pyrimidinediamine], the results for the IC50 in experiment [1] (Table III Example 3) and in experiment [2] were 5160 nM and 25800 nM, respectively.

As to `Cc1cnc(Nc2cccc(S(=O)(=O)NC(=O)CN)c2)nc1Nc1cccc(CNS(=O)(=O)C2CC2)c1` [Compound I-133, N2-[3-N-(2-amino-1-oxoethyl)aminosulfonyl]phenyl-N4-(3-cyclopropylsulfonylaminomethyl)phenyl-5-methyl-2,4-pyrimidinediamine hydrogen chloride salt], the IC50 in experiment [1] (Table III Example 3) worked out at 715 nM; in experiment [2] it was 1210 nM.

Regarding `Cc1cnc(Nc2cccc(S(=O)(=O)NC(=O)[C@@H](NC(=O)OCc3ccccc3)C(C)C)c2)nc1Nc1cccc(CNS(=O)(=O)C2CC2)c1` [Compound I-147, N2-[3-N-(Cbz-L-Val)aminosulfonyl]phenyl-N4-(3-cyclopropylsulfonylaminomethyl)phenyl-5-methyl-2,4-pyrimidinediamine sodium salt], the concentration for half-maximal inhibition (IC50) was determined as 13800 nM in experiment [1] (Table III Example 3, sodium salt) and 25100 nM in experiment [2].

`Cc1cnc(Nc2ccc(S(=O)(=O)Nc3ccccc3)cc2)nc1Nc1ccc(CNS(=O)(=O)C2CC2)cc1` [Compound I-149, N4-(4-cyclopropylsulfonylaminomethyl)phenyl-5-methyl-N2-(4-phenylaminosulfonyl)phenyl-2,4-pyrimidinediamine]: the IC50 came to 82.2 nM in experiment [1] (Table III Example 3) and 190 nM in experiment [2].

Regarding `Cc1cnc(Nc2ccc(S(=O)(=O)NC3CCN(C)CC3)cc2)nc1Nc1ccc(CNS(=O)(=O)C2CC2)cc1` [Compound I-151, N4-(4-cyclopropylsulfonylaminomethyl)phenyl-5-methyl-N2-[4-(1-methylpiperidin-4-yl)aminosulfonyl]phenyl-2,4-pyrimidinediamine], the IC50 in experiment [1] (Table III Example 3) was determined as 353 nM; in experiment [2], 1080 nM.

In the case of `Cc1cnc(Nc2cccc(S(=O)(=O)NC3CCN(C)CC3)c2)nc1Nc1ccc(CNS(=O)(=O)C2CC2)cc1` [Compound I-152, N4-(4-cyclopropylsulfonylaminomethyl)phenyl-5-methyl-N2-[3-(1-methylpiperidin-4-yl)aminosulfonyl]phenyl-2,4-pyrimidinediamine], the results for the IC50 in experiment [1] (Table III Example 3) and in experiment [2] were 166 nM and 717 nM, respectively.

Take `Cc1cnc(Nc2ccc(S(=O)(=O)NCc3ccccc3)cc2)nc1Nc1ccc(CNS(=O)(=O)C2CC2)cc1` [Compound I-153, N2-(4-benzylaminosulfonyl)phenyl-N4-(4-cyclopropylsulfonylaminomethyl)phenyl-5-methyl-2,4-pyrimidinediamine]: the concentration for half-maximal inhibition (IC50) was determined as 80 nM in experiment [1] (Table III Example 3) and 118 nM in experiment [2].

On to `Cc1cnc(Nc2ccc(S(=O)(=O)Nc3ccccc3)cc2)nc1Nc1cccc(CNS(=O)(=O)C2CC2)c1` [Compound I-155, N4-(3-cyclopropylsulfonylaminomethyl)phenyl-5-methyl-N2-(4-phenylaminosulfonyl)phenyl-2,4-pyrimidinediamine], for which the IC50 in experiment [1] (Table III Example 3) stood at 250 nM; in experiment [2] it was 1430 nM.

Consider `Cc1cnc(Nc2cccc(S(=O)(=O)Nc3ccccc3)c2)nc1Nc1cccc(CNS(=O)(=O)C2CC2)c1` [Compound I-156, N4-(3-cyclopropylsulfonylaminomethyl)phenyl-5-methyl-N2-(3-phenylaminosulfonyl)phenyl-2,4-pyrimidinediamine], for which the half-inhibitory concentration (IC50) was found to be 266 nM in experiment [1] (Table III Example 3) and 1080 nM in experiment [2].

Take `Cc1cnc(Nc2ccc(S(=O)(=O)NCc3ccccc3)cc2)nc1Nc1cccc(CNS(=O)(=O)C2CC2)c1` [Compound I-157, N2-(4-benzylaminosulfonyl)phenyl-N4-(3-cyclopropylsulfonylaminomethyl)phenyl-5-methyl-2,4-pyrimidinediamine]: the IC50 in experiment [1] (Table III Example 3) worked out at 250 nM; in experiment [2] it was 1100 nM.

Turning to `Cc1cnc(Nc2cccc(S(=O)(=O)NCc3ccccc3)c2)nc1Nc1cccc(CNS(=O)(=O)C2CC2)c1` [Compound I-158, N2-(3-benzylaminosulfonyl)phenyl-N4-(3-cyclopropylsulfonylaminomethyl)phenyl-5-methyl-2,4-pyrimidinediamine], the values for the IC50 in experiment [1] (Table III Example 3) and in experiment [2] were 300 nM and 531 nM, respectively.

For the compound `Cc1cnc(Nc2ccc(S(=O)(=O)NC3CCN(C)CC3)cc2)nc1Nc1cccc(CNS(=O)(=O)C2CC2)c1` [Compound I-159, N4-(3-cyclopropylsulfonylaminomethyl)phenyl-5-methyl-N2-[4-(1-methylpiperidin-4-yl)aminosulfonyl]phenyl-2,4-pyrimidinediamine], the figures for the IC50 in experiment [1] (Table III Example 3) and in experiment [2] were 539 nM and 7960 nM, respectively.

In the case of `Cc1cnc(Nc2cccc(S(=O)(=O)NC3CCN(C)CC3)c2)nc1Nc1cccc(CNS(=O)(=O)C2CC2)c1` [Compound I-160, N4-(3-cyclopropylsulfonylaminomethyl)phenyl-5-methyl-N2-[3-(1-methylpiperidin-4-yl)aminosulfonyl]phenyl-2,4-pyrimidinediamine], the IC50 amounted to 242 nM in experiment [1] (Table III Example 3) and 3960 nM in experiment [2].

Consider `Cc1cnc(Nc2ccc(S(=O)(=O)NCc3ccncc3)cc2)nc1Nc1ccc(CNS(=O)(=O)C2CC2)cc1` [Compound I-168, N4-(4-cyclopropylsulfonylaminomethyl)phenyl-5-methyl-N2-[4-(4-pyridylmethyl)aminosulfonyl]phenyl-2,4-pyrimidinediamine], for which the IC50 worked out at 278 nM in experiment [1] (Table III Example 3) and 347 nM in experiment [2].
